Experimental data: patent US6355799B1, “Substituted benzene compounds, process for their preparation, and herbicidal and defoliant compositions containing them” (ISK Americas Incorporated, priority 1997, dated 2002)

Experiments:
Type in all cases: in vivo
[1] = test system: field corn (Zea mays L., var. Dekalb 535, CORN); assay: Pre-emerge test, crop safety; conditions: pre-emerge, rated 14 days after application, 0 = no damage, 100 = complete death
Summary of the method: (§1)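 Applied at 15–1000 g ai/ha from acetone in 187 l/ha spray volume. Post-emergence applications included 0.25% v/v non-ionic surfactant and reached plants sown 8–21 days before. Pre-emergence applications were incorporated by surface watering. Efficacy or crop damage was rated on a 0–100 scale after 14 days.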

[2] = test system: upland rice (Oryza sp., var. Tebonnet, RICE); assay: Pre-emerge test, crop safety; conditions: pre-emerge, rated 14 days after application, 0 = no damage, 100 = complete death
Summary of the method: as §1

[3] = test system: johnsongrass (Sorghum halepense, SORHA); assay: Post-emerge test, greenhouse herbicide activity screening; conditions: phytotoxicity rating 0-100 (0 no damage, 100 complete death), 14 days after application
Summary of the method: (§2)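 Compounds in acetone were track-sprayed at 187 l/ha, 15–1000 g ai/ha, onto sandy loam pots. Pre-emerge seeds were sown one day before spraying, with surface watering afterwards. Post-emerge plants were at the 2–3 leaf stage and sprayed with 0.25% v/v non-ionic surfactant. Injury was rated 0–100 at 14 days.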

[4] = test system: large crabgrass (Digitaria sanguinalis, DIGSA); assay: as above; conditions: phytotoxicity rating 0-100 (0 no damage, 100 complete death), 14 days after application
Summary of the method: as §2

[5] = test system: green foxtail (Setaria viridis, SETVI); assay: as above; conditions: phytotoxicity rating 0-100 (0 no damage, 100 complete death), 14 days after application
Summary of the method: as §2

[6] = test system: sicklepod (Cassia obtusifolia, CASOB); assay: as above; conditions: phytotoxicity rating 0-100 (0 no damage, 100 complete death), 14 days after application
Summary of the method: as §2

[7] = test system: common ragweed (Ambrosia artemisizfolia L., AMBEL); assay: as above; conditions: phytotoxicity rating 0-100 (0 no damage, 100 complete death), 14 days after application
Summary of the method: as §2

[8] = test system: barnyardgrass (Echinochloa crus-galli, ECHCG); assay: as above; conditions: phytotoxicity rating 0-100 (0 no damage, 100 complete death), 14 days after application
Summary of the method: as §2

[9] = test system: redroot pigweed (Amaranthus retroflexus, AMARE); assay: as above; conditions: phytotoxicity rating 0-100 (0 no damage, 100 complete death), 14 days after application
Summary of the method: as §2

[10] = test system: velvetleaf (Abutilon theophrasti, ABUTH); assay: as above; conditions: phytotoxicity rating 0-100 (0 no damage, 100 complete death), 14 days after application
Summary of the method: as §2

[11] = test system: lambsquarters (Chenopodium album, CHEAL); assay: as above; conditions: phytotoxicity rating 0-100 (0 no damage, 100 complete death), 14 days after application
Summary of the method: as §2

[12] = test system: ivyleaf morningglory (Ipomoea hederacea, IPOHE); assay: as above; conditions: phytotoxicity rating 0-100 (0 no damage, 100 complete death), 14 days after application
Summary of the method: as §2

[13] = test system: field corn (Zea mays L., var. Dekalb 535, CORN); assay: Post-emerge test, crop safety; conditions: phytotoxicity rating 0-100 (0 no damage, 100 complete death), 14 days after application
Summary of the method: as §2

[14] = test system: upland rice (Oryza sp., var. Tebonnet, RICE); assay: Post-emerge test, crop safety; conditions: phytotoxicity rating 0-100 (0 no damage, 100 complete death), 14 days after application
Summary of the method: as §2

[15] = test system: redroot pigweed (Amaranthus retroflexus, AMARE); assay: Pre-emerge test, greenhouse herbicide activity screening; conditions: pre-emerge, rated 14 days after application, 0 = no damage, 100 = complete death
Summary of the method: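 Herbicidal damage is scored 0 (none) to 100 (complete plant death) two weeks after a simulated field spray. Rates span 15–1000 g ai/ha, delivered in acetone at 187 l/ha. For post-emergence treatments, plants have 2–3 leaves and the spray carries 0.25% v/v non-ionic surfactant.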

[16] = test system: johnsongrass (Sorghum halepense, SORHA); assay: as above; conditions: pre-emerge, rated 14 days after application, 0 = no damage, 100 = complete death
Summary of the method: as §2

[17] = test system: large crabgrass (Digitaria sanguinalis, DIGSA); assay: as above; conditions: pre-emerge, rated 14 days after application, 0 = no damage, 100 = complete death
Summary of the method: as §2

[18] = test system: green foxtail (Setaria viridis, SETVI); assay: as above; conditions: pre-emerge, rated 14 days after application, 0 = no damage, 100 = complete death
Summary of the method: as §2

[19] = test system: sicklepod (Cassia obtusifolia, CASOB); assay: as above; conditions: pre-emerge, rated 14 days after application, 0 = no damage, 100 = complete death
Summary of the method: as §2

[20] = test system: common ragweed (Ambrosia artemisizfolia L., AMBEL); assay: as above; conditions: pre-emerge, rated 14 days after application, 0 = no damage, 100 = complete death
Summary of the method: as §2

[21] = test system: barnyardgrass (Echinochloa crus-galli, ECHCG); assay: as above; conditions: pre-emerge, rated 14 days after application, 0 = no damage, 100 = complete death
Summary of the method: as §2

[22] = test system: velvetleaf (Abutilon theophrasti, ABUTH); assay: as above; conditions: pre-emerge, rated 14 days after application, 0 = no damage, 100 = complete death
Summary of the method: as §2

[23] = test system: lambsquarters (Chenopodium album, CHEAL); assay: as above; conditions: pre-emerge, rated 14 days after application, 0 = no damage, 100 = complete death
Summary of the method: as §2

[24] = test system: ivyleaf morningglory (Ipomoea hederacea, IPOHE); assay: as above; conditions: pre-emerge, rated 14 days after application, 0 = no damage, 100 = complete death
Summary of the method: as §2

## COc1c(Cl)cc(F)c(-n2c(=O)cc(C(F)(F)F)n(C)c2=O)c1N(C)C [Compound 1-11, 3-(4-chloro-2-dimehtylainino-6-fluoro-3-methoxyphenyl)-1-methyl-6-trifluoromethyl-2,4(1H, 3H)-pyrimidinedione]
[1]; 63 g ai/ha
  Pre-emerge crop damage CORN (phytotoxicity rating, scale 0-100): 0
[1]; 250 g ai/ha
  Pre-emerge crop damage CORN (phytotoxicity rating, scale 0-100): 60
[2]; 63 g ai/ha
  Pre-emerge crop damage RICE (phytotoxicity rating, scale 0-100): 20
[2]; 250 g ai/ha
  Pre-emerge crop damage RICE (phytotoxicity rating, scale 0-100): 70
[3]; 63 g ai/ha
  Post-emerge Herbicidal Activity SORHA: 0
[3]; 250 g ai/ha
  Post-emerge Herbicidal Activity SORHA: 0
[4]; 63 g ai/ha
  Post-emerge Herbicidal Activity DIGSA: 0
[4]; 250 g ai/ha
  Post-emerge Herbicidal Activity DIGSA: 0
[5]; 63 g ai/ha
  Post-emerge Herbicidal Activity SETVI: 0
[5]; 250 g ai/ha
  Post-emerge Herbicidal Activity SETVI: 50
[6]; 63 g ai/ha
  Post-emerge Herbicidal Activity CASOB: 0
[6]; 250 g ai/ha
  Post-emerge Herbicidal Activity CASOB: 0
[7]; 63 g ai/ha
  Post-emerge Herbicidal Activity AMBEL: 10
[7]; 250 g ai/ha
  Post-emerge Herbicidal Activity AMBEL: 10
[8]; 63 g ai/ha
  Post-emerge Herbicidal Activity ECHCG: 0
[8]; 250 g ai/ha
  Post-emerge Herbicidal Activity ECHCG: 0
[9]; 63 g ai/ha
  Post-emerge Herbicidal Activity AMARE: 40
[9]; 250 g ai/ha
  Post-emerge Herbicidal Activity AMARE: 60
[10]; 63 g ai/ha
  Post-emerge Herbicidal Activity ABUTH: 70
[10]; 250 g ai/ha
  Post-emerge Herbicidal Activity ABUTH: 100
[11]; 63 g ai/ha
  Post-emerge Herbicidal Activity CHEAL: 50
[11]; 250 g ai/ha
  Post-emerge Herbicidal Activity CHEAL: 95
[12]; 63 g ai/ha
  Post-emerge Herbicidal Activity IPOHE: 40
[12]; 250 g ai/ha
  Post-emerge Herbicidal Activity IPOHE: 70
[13]; 63 g ai/ha
  Post-emerge Herbicidal Activity CORN (crop damage): 0
[13]; 250 g ai/ha
  Post-emerge Herbicidal Activity CORN (crop damage): 0
[14]; 63 g ai/ha
  Post-emerge Herbicidal Activity RICE (crop damage): 0
[14]; 250 g ai/ha
  Post-emerge Herbicidal Activity RICE (crop damage): 0
[15]; 63 g ai/ha
  Pre-emerge Herbicidal Activity AMARE (phytotoxicity rating, scale 0-100): 100
[15]; 250 g ai/ha
  Pre-emerge Herbicidal Activity AMARE (phytotoxicity rating, scale 0-100): 100
[16]; 63 g ai/ha
  Pre-emerge Herbicidal Activity SORHA (phytotoxicity rating, scale 0-100): 90
[16]; 250 g ai/ha
  Pre-emerge Herbicidal Activity SORHA (phytotoxicity rating, scale 0-100): 98
[17]; 63 g ai/ha
  Pre-emerge Herbicidal Activity DIGSA (phytotoxicity rating, scale 0-100): 90
[17]; 250 g ai/ha
  Pre-emerge Herbicidal Activity DIGSA (phytotoxicity rating, scale 0-100): 100
[18]; 63 g ai/ha
  Pre-emerge Herbicidal Activity SETVI (phytotoxicity rating, scale 0-100): 80
[18]; 250 g ai/ha
  Pre-emerge Herbicidal Activity SETVI (phytotoxicity rating, scale 0-100): 100
[19]; 63 g ai/ha
  Pre-emerge Herbicidal Activity CASOB (phytotoxicity rating, scale 0-100): 20
[19]; 250 g ai/ha
  Pre-emerge Herbicidal Activity CASOB (phytotoxicity rating, scale 0-100): 60
[20]; 63 g ai/ha
  Pre-emerge Herbicidal Activity AMBEL (phytotoxicity rating, scale 0-100): 50
[20]; 250 g ai/ha
  Pre-emerge Herbicidal Activity AMBEL (phytotoxicity rating, scale 0-100): 100
[21]; 63 g ai/ha
  Pre-emerge Herbicidal Activity ECHCG (phytotoxicity rating, scale 0-100): 0
[21]; 250 g ai/ha
  Pre-emerge Herbicidal Activity ECHCG (phytotoxicity rating, scale 0-100): 95
[22]; 63 g ai/ha
  Pre-emerge Herbicidal Activity ABUTH (phytotoxicity rating, scale 0-100): 100
[22]; 250 g ai/ha
  Pre-emerge Herbicidal Activity ABUTH (phytotoxicity rating, scale 0-100): 100
[23]; 63 g ai/ha
  Pre-emerge Herbicidal Activity CHEAL (phytotoxicity rating, scale 0-100): 100
[23]; 250 g ai/ha
  Pre-emerge Herbicidal Activity CHEAL (phytotoxicity rating, scale 0-100): 100
[24]; 63 g ai/ha
  Pre-emerge Herbicidal Activity IPOHE (phytotoxicity rating, scale 0-100): 20
[24]; 250 g ai/ha
  Pre-emerge Herbicidal Activity IPOHE (phytotoxicity rating, scale 0-100): 90
